Assays:
WEE1 = molecular target: T1, WEE1 (Homo sapiens, UniProt P30291+Q96SW2); experiment: Western blot, degradation of substrate protein in hPBMCs; assay type: cell-based; settings: 24 hours treatment, compounds at 50 nM and 500 nM (concentration behind the class not stated)
T1 construct: effects of the compounds of the present disclosure on the expression of target proteins in cells; endogenous in cells; host or cells: human PBMCs (Milecell Biotechnologies)

IKZF1 = molecular target: T2, IKZF1 (Homo sapiens, UniProt Q13422+Q96SW2); experiment: as above; assay type: cell-based; settings: 24 hours treatment, compounds at 50 nM and 500 nM (concentration behind the class not stated)
T2 construct: effects of the compounds of the present disclosure on the expression of target proteins in cells; endogenous in cells; host or cells: human PBMCs (Milecell Biotechnologies)

IKZF2 = molecular target: T3, IKZF2 (Homo sapiens, UniProt Q96SW2+Q9UKS7); experiment: as above; assay type: cell-based; settings: 24 hours treatment, compounds at 50 nM and 500 nM (concentration behind the class not stated)
T3 construct: effects of the compounds of the present disclosure on the expression of target proteins in cells; endogenous in cells; host or cells: human PBMCs (Milecell Biotechnologies)

CK1α = molecular target: T4, CK1α (Homo sapiens, UniProt P48729+Q96SW2); experiment: as above; assay type: cell-based; settings: 24 hours treatment, compounds at 50 nM and 500 nM (concentration behind the class not stated)
T4 construct: effects of the compounds of the present disclosure on the expression of target proteins in cells; endogenous in cells; host or cells: human PBMCs (Milecell Biotechnologies)

IKZF3 = molecular target: T5, IKZF3 (Homo sapiens, UniProt Q96SW2+Q9UKT9); experiment: as above; assay type: cell-based; settings: 24 hours treatment, compounds at 50 nM and 500 nM (concentration behind the class not stated)
T5 construct: effects of the compounds of the present disclosure on the expression of target proteins in cells; endogenous in cells; host or cells: human PBMCs (Milecell Biotechnologies)

GSPT1 = experiment: as above; assay type: cell-based, Human; settings: 24 hours treatment, compounds at 50 nM and 500 nM (concentration behind the class not stated)
[1] = molecular target: T6, human Cereblon WT GST-tagged protein (Homo sapiens, UniProt Q96SW2); experiment: CRBN-binding affinity, HTRF (CEREBLON BINDING kit); settings: for inhibition at 0.5 µM: read-out: Inhibition Rate at 0.5 µM (%); for inhibition at 2 µM: read-out: Inhibition Rate at 2 µM (%)
T6 construct: purchased CISBIO 64BDCRBNPEH
T6 sequence (Q96SW2 whole entry): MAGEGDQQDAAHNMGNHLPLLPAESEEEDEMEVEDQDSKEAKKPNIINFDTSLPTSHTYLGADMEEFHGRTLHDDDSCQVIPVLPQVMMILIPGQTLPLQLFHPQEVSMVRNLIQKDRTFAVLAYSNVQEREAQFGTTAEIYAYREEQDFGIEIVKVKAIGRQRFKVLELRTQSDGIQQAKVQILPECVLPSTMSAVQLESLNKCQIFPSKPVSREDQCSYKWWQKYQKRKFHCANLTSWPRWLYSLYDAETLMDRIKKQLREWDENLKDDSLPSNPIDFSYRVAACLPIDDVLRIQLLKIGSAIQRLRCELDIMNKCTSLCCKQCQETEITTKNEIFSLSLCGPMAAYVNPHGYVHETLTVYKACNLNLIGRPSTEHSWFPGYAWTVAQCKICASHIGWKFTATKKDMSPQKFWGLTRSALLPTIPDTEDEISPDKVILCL

T3 sequence (Q9UKS7 whole entry): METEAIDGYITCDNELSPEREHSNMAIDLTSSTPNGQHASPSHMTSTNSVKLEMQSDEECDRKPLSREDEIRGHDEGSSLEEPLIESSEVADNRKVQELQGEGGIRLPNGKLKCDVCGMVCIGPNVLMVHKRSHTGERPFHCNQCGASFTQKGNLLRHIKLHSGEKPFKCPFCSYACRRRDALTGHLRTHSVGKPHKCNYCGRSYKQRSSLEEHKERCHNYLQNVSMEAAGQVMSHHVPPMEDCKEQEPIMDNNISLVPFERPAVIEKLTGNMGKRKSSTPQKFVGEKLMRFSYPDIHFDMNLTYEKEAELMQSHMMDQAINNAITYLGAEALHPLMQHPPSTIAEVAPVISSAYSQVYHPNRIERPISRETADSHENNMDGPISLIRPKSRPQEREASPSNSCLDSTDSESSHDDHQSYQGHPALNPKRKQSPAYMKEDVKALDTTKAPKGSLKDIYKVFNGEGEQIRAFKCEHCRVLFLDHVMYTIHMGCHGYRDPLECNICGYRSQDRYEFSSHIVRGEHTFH
T3 sequence (Q96SW2 whole entry): as the sequence (Q96SW2 whole entry) above
T3 sequence (Q16531 whole entry partner): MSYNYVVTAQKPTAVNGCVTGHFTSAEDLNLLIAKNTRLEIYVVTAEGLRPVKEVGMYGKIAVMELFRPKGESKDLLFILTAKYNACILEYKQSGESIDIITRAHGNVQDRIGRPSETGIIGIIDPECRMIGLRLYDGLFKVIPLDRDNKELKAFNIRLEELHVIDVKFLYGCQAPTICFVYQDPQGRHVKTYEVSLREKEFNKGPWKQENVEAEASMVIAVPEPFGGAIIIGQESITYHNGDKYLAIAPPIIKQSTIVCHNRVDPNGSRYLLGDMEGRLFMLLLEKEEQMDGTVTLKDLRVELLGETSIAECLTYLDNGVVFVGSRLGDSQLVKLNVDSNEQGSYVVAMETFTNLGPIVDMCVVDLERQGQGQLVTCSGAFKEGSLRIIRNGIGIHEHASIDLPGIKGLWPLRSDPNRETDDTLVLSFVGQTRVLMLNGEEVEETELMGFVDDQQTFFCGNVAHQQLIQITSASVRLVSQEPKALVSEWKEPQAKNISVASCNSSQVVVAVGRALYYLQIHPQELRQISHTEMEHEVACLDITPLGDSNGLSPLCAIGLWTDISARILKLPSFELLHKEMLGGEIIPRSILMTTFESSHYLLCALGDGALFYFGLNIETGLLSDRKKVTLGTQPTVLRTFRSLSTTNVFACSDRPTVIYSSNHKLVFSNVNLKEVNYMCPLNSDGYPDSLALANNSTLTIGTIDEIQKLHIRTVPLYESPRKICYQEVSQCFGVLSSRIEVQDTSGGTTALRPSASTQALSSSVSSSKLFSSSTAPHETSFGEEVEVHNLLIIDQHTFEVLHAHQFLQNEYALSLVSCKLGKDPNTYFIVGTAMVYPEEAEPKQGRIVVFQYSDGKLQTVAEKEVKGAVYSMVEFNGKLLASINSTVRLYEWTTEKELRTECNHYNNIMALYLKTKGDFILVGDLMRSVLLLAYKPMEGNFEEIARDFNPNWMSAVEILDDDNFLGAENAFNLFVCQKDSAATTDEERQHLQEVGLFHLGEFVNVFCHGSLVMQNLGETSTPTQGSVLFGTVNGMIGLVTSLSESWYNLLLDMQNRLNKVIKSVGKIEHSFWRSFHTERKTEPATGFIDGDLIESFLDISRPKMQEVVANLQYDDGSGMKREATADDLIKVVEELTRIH
T2 sequence (Q13422 whole entry): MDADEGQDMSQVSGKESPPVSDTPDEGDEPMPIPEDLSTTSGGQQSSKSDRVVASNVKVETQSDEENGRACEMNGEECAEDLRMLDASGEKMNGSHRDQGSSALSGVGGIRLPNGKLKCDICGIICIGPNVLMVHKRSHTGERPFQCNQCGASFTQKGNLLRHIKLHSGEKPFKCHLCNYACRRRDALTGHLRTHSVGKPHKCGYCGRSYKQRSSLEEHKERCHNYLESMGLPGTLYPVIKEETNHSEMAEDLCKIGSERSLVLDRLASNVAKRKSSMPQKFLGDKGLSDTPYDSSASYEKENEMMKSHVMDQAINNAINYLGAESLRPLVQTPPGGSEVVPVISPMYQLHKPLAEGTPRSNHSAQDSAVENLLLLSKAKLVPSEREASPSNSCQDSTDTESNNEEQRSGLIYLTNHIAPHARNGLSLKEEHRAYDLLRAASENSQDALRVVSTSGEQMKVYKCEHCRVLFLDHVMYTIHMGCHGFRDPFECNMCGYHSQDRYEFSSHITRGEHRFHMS
T2 sequence (Q96SW2 whole entry): as the sequence (Q96SW2 whole entry) above
T2 sequence (Q16531 whole entry partner): as the sequence (Q16531 whole entry partner) above
T1 sequence (P30291 whole entry): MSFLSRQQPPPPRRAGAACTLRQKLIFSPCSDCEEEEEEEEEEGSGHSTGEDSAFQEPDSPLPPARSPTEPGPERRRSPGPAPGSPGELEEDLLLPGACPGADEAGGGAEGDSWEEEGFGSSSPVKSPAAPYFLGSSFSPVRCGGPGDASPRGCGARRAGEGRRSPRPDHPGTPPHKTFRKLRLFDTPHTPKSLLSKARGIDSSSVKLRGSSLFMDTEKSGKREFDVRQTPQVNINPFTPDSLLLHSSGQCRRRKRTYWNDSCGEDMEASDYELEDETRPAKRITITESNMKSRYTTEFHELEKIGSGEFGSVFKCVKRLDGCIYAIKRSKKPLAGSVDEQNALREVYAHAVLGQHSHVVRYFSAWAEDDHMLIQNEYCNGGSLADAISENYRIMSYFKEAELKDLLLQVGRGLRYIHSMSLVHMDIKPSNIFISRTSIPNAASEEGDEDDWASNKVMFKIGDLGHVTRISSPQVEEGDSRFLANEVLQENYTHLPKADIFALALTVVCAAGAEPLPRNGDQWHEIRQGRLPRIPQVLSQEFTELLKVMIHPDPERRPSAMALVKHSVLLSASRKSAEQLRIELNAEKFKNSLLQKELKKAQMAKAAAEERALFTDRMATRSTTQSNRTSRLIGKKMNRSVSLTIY
T1 sequence (Q96SW2 whole entry): as the sequence (Q96SW2 whole entry) above
T1 sequence (Q16531 whole entry partner): as the sequence (Q16531 whole entry partner) above
T4 sequence (P48729 whole entry): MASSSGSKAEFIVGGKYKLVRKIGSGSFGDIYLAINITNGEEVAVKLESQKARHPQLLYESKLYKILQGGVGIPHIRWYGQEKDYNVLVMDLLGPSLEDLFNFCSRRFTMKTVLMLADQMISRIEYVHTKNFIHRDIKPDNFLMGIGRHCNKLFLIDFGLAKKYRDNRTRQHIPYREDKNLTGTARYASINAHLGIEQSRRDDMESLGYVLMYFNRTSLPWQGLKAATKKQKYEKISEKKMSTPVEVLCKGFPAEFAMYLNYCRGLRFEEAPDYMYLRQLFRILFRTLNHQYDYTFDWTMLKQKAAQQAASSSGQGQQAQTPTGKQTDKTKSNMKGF
T4 sequence (Q96SW2 whole entry): as the sequence (Q96SW2 whole entry) above
T4 sequence (Q16531 whole entry partner): as the sequence (Q16531 whole entry partner) above
T5 sequence (Q9UKT9 whole entry): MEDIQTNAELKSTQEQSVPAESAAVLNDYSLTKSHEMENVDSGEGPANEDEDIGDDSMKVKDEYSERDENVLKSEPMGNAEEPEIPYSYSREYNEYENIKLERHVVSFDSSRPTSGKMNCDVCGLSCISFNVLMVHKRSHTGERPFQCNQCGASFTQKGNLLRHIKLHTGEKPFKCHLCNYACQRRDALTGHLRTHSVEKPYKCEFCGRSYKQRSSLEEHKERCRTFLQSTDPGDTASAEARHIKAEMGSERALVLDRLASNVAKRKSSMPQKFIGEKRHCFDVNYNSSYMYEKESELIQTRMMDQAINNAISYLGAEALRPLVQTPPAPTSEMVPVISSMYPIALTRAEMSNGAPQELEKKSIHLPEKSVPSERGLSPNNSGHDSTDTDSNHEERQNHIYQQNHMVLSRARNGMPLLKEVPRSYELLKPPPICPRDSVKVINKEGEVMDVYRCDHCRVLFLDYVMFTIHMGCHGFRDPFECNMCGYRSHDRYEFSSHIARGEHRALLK
T5 sequence (Q96SW2 whole entry): as the sequence (Q96SW2 whole entry) above
T5 sequence (Q16531 whole entry partner): as the sequence (Q16531 whole entry partner) above

Structure (SMILES) | inhibition at 0.5 µM [1] [%] | inhibition at 2 µM [1] [%] | Wee1 substrate protein remaining % (WEE1) | IKZF 1 substrate protein remaining % (IKZF1) | IKZF2 substrate protein remaining % (IKZF2) | CK1α substrate protein remaining % (CK1α) | IKZF3 substrate protein remaining % (IKZF3) | GSPT1 substrate protein remaining % (GSPT1)
Cc1sc2ncnc(N3CCN(Cc4cccc5c4CN(C4CCC(=O)NC4=O)C5=S)CC3)c2c1C (centres unmarked) [GT-08916, 3-(4-((4-(5,6-dimethylthieno[2,3-d]pyrimidin-4-yl)piperazin-1-yl)methyl)-1-thioxoisoindolin-2-yl)piperidine-2,6-dione] | 40 to 53 | 80 to 100 | A (0% ≤ substrate protein remaining % ≤ 80%) | B (80%< substrate protein remaining %≤ 100%) | B (80%< substrate protein remaining %≤ 100%) | B (80%< substrate protein remaining %≤ 100%) | B (80%< substrate protein remaining %≤ 100%) | A (0% ≤ substrate protein remaining % ≤ 80%)
Cc1sc2ncnc(N3CCCN(Cc4cccc5c4CN(C4CCC(=O)NC4=O)C5=S)CC3)c2c1C (centres unmarked) [GT-08917, 3-(4-((4-(5,6-dimethylthieno[2,3-d]pyrimidin-4-yl)-1,4-diazepan-1-yl)methyl)-1-thioxoisoindolin-2-yl)piperidine-2,6-dione] | 53 to 60 | 80 to 100 | A (0% ≤ substrate protein remaining % ≤ 80%) | B (80%< substrate protein remaining %≤ 100%) | B (80%< substrate protein remaining %≤ 100%) | B (80%< substrate protein remaining %≤ 100%) | B (80%< substrate protein remaining %≤ 100%) | A (0% ≤ substrate protein remaining % ≤ 80%)
O=C1CCC(N2Cc3c(CN4CCN(c5ncnc6sc(Br)cc56)CC4)cccc3C2=S)C(=O)N1 (centres unmarked) [GT-08918, 3-(4-((4-(6-bromothieno[2,3-d]pyrimidin-4-yl)piperazin-1-yl)methyl)-1-thioxoisoindolin-2-yl)piperidine-2,6-dione] | 60 to 80 | 80 to 100 | A (0% ≤ substrate protein remaining % ≤ 80%) | B (80%< substrate protein remaining %≤ 100%) | B (80%< substrate protein remaining %≤ 100%) | B (80%< substrate protein remaining %≤ 100%) | B (80%< substrate protein remaining %≤ 100%) | B (80%< substrate protein remaining %≤ 100%)
O=C1CCC(N2Cc3c(CN4CCN(c5ncnc6sc(-c7ccccc7)cc56)CC4)cccc3C2=S)C(=O)N1 (centres unmarked) [GT-08919, 3-(4-((4-(6-phenylthieno[2,3-d]pyrimidin-4-yl)piperazin-1-yl)methyl)-1-thioxoisoindolin-2-yl)piperidine-2,6-dione] | 20 to 30 | 60 to 80 | A (0% ≤ substrate protein remaining % ≤ 80%) | B (80%< substrate protein remaining %≤ 100%) | B (80%< substrate protein remaining %≤ 100%) | B (80%< substrate protein remaining %≤ 100%) | B (80%< substrate protein remaining %≤ 100%) | B (80%< substrate protein remaining %≤ 100%)
O=C1CCC(N2Cc3c(CN4CCN(c5ncnc6sc7c(c56)CCCC7)CC4)cccc3C2=S)C(=O)N1 (centres unmarked) [GT-08924, 3-(4-((4-(5,6,7,8-tetrahydrobenzo[4,5]thieno[2,3-d]pyrimidin-4-yl)piperazin-1-yl)methyl)-1-thioxoisoindolin-2-yl)piperidine-2,6-dione] | 40 to 53 | 80 to 100 | A (0% ≤ substrate protein remaining % ≤ 80%) | B (80%< substrate protein remaining %≤ 100%) | A (0% ≤ substrate protein remaining % ≤ 80%) | B (80%< substrate protein remaining %≤ 100%) | B (80%< substrate protein remaining %≤ 100%) | B (80%< substrate protein remaining %≤ 100%)

The next lines start with results.

inhibition at 0.5 µM [1] [%] | inhibition at 2 µM [1] [%] | Structure (SMILES) | Wee1 substrate protein remaining % (WEE1) | IKZF 1 substrate protein remaining % (IKZF1) | IKZF2 substrate protein remaining % (IKZF2) | CK1α substrate protein remaining % (CK1α) | IKZF3 substrate protein remaining % (IKZF3) | GSPT1 substrate protein remaining % (GSPT1)
60 to 80 | 80 to 100 | O=C1CCC(N2Cc3c(CN4CCN(c5ncnc6sccc56)CC4)cccc3C2=S)C(=O)N1 (centres unmarked) [GT-08912, 3-(4-((4-(thieno[2,3-d]pyrimidin-4-yl)piperazin-1-yl)methyl)-1-thioxoisoindolin-2-yl)piperidine-2,6-dione] | A (0% ≤ substrate protein remaining % ≤ 80%) | B (80%< substrate protein remaining %≤ 100%) | B (80%< substrate protein remaining %≤ 100%) | B (80%< substrate protein remaining %≤ 100%) | B (80%< substrate protein remaining %≤ 100%) | B (80%< substrate protein remaining %≤ 100%)
60 to 80 | 80 to 100 | Cc1csc2ncnc(N3CCN(Cc4cccc5c4CN(C4CCC(=O)NC4=O)C5=S)CC3)c12 (centres unmarked) [GT-08913, 3-(4-((4-(5-methylthieno[2,3-d]pyrimidin-4-yl)piperazin-1-yl)methyl)-1-thioxoisoindolin-2-yl)piperidine-2,6-dione] | A (0% ≤ substrate protein remaining % ≤ 80%) | B (80%< substrate protein remaining %≤ 100%) | B (80%< substrate protein remaining %≤ 100%) | B (80%< substrate protein remaining %≤ 100%) | B (80%< substrate protein remaining %≤ 100%) | B (80%< substrate protein remaining %≤ 100%)
60 to 80 | 80 to 100 | Cc1cc2c(N3CCN(Cc4cccc5c4CN(C4CCC(=O)NC4=O)C5=S)CC3)ncnc2s1 (centres unmarked) [GT-08914, 3-(4-((4-(6-methylthieno[2,3-d]pyrimidin-4-yl)piperazin-1-yl)methyl)-1-thioxoisoindolin-2-yl)piperidine-2,6-dione] | A (0% ≤ substrate protein remaining % ≤ 80%) | B (80%< substrate protein remaining %≤ 100%) | B (80%< substrate protein remaining %≤ 100%) | B (80%< substrate protein remaining %≤ 100%) | B (80%< substrate protein remaining %≤ 100%) | B (80%< substrate protein remaining %≤ 100%)
60 to 80 | 80 to 100 | Cc1nc(N2CCN(Cc3cccc4c3CN(C3CCC(=O)NC3=O)C4=S)CC2)c2ccsc2n1 (centres unmarked) [GT-08922, 3-(4-((4-(2-methylthieno[2,3-d]pyrimidin-4-yl)piperazin-1-yl)methyl)-1-thioxoisoindolin-2-yl)piperidine-2,6-dione] | A (0% ≤ substrate protein remaining % ≤ 80%) | B (80%< substrate protein remaining %≤ 100%) | B (80%< substrate protein remaining %≤ 100%) | B (80%< substrate protein remaining %≤ 100%) | B (80%< substrate protein remaining %≤ 100%) | B (80%< substrate protein remaining %≤ 100%)
53 to 60 | 80 to 100 | Cc1nc(N2CCN(Cc3cccc4c3CN(C3CCC(=O)NC3=O)C4=S)CC2)c2c3c(sc2n1)CCC3 (centres unmarked) [GT-08926, 3-(4-((4-(2-methyl-6,7-dihydro-5H-cyclopenta[4,5]thieno[2,3-d]pyrimidin-4-yl)piperazin-1-yl)methyl)-1-thioxoisoindolin-2-yl)piperidine-2,6-dione] | A (0% ≤ substrate protein remaining % ≤ 80%) | B (80%< substrate protein remaining %≤ 100%) | B (80%< substrate protein remaining %≤ 100%) | B (80%< substrate protein remaining %≤ 100%) | B (80%< substrate protein remaining %≤ 100%) | B (80%< substrate protein remaining %≤ 100%)

From patent EP4745135A1 (Gluetacs Therapeutics (Shanghai) Co., Ltd., priority 2023, dated 2025)
